Test system: cohesin complex
Experiment: ChIP-Seq for RAD21 and SMC1 (cohesin binding to chromatin) with and without auxin
Type: cell-based, human
Text: Applicants employed an auxin-inducible degron (AID) (Natsume et al., 2016) to destroy RAD21, a core component of the cohesin complex. In this system, constitutive expression of the auxin-activated ubiquitin ligase TIR1 leads, in the presence of auxin, to rapid degradation of proteins tagged with an AID domain. Applicants used this system in HCT-116, a human colorectal carcinoma cell line. This cell line had been previously modified by (Natsume et al., 2016) so that both RAD21 alleles were tagged with an AID domain and a fluorescent mClover (“RAD21-mAC”) (FIG. 1A). Applicants confirmed that RAD21-mAC was efficiently degraded after 6 hours of auxin treatment using fluorescence microscopy and ChIP (FIG. 1B, 8, see Methods), and that cohesin could no longer associate with DNA using ChIP-Seq with antibodies for SMC1, a different cohesin subunit (FIG. 1C, D).
ChIP-Seq for H3K27Ac, H3K4me1, H3K4me3, H3K36me3, H3K27me3, H3K9me3, H4K16Ac, H4K20me3, H3K79me2, and H2.AZ was performed using a native ChIP-Seq protocol. Chromatin from untreated HCT-116 RAD21-mAC cells or cells treated for 6 hours with 500 uM IAA was digested with Mnase (Sigma) in digestion buffer (50 mM Tris-HCl, pH7.6, 1 mM CaCl2), 0.2% Triton X-100, butyrate 5 mM) for 5′ at 37° C. and dialyzed against RIPA buffer for 2 hrs at 4° C. Five microgram of respective antibody was incubated with 40 μl of Dynabeads Protein A (or G) for 40 min at room temperature. Antibody-bound beads were added to 500 μl of sonicated or Mnase-digested chromatin, incubated at 4° C. overnight, and washed twice with RIPA buffer, twice with RIPA buffer containing 0.3 M NaCl, twice with LiCl buffer (0.25 M LiCl, 0.5% Igepal-630, 0.5% sodium deoxycholate), once with TE (pH 8.0) plus 0.2% Triton X-100, and once with TE (pH 8.0). ChIP DNA was purified by phenol-chloroform extraction followed by ethanol precipitation. Libraries were prepped for Illumina sequencing and 50 bp single-end reads were sequenced on a HiSeq2000 or 2500 (Illumina). Applicants also performed ChIP-Seq for RAD21 and CTCF following the same protocol as above, except that cells were fixed with 1% formaldehyde for 10 minutes at 37° C. and fixation was quenched by the addition of glycine to a final concentration of 125 mM for 10 minutes. The fixed cells were sonicated using a Branson sonifier at amplitude 35%, 12 cycles of 20 seconds of sonication and 30 seconds of pause. Antibody was added to the sonicated chromatin as above and the samples were further processed as above.
Applicants also performed ChIP-Seq for SMC1 and an additional replicate for CTCF following the protocol outlined by the ENCODE consortium (2012).
All ChIP-Seq data was aligned to hg19 with BWA […] (Li and Durbin, 2010), deduplicated using PicardTools, and analyzed with MACS 2.0 (Liu, 2014). All data was normalized against the corresponding input control using the ‘-c’ option of MACS 2.0. ChIP-Seq peaks were called using the ‘callpeak’ function of MACS 2.0 with default parameters. For H3K4me3 and H3K4me1, Applicants additionally used the ‘broad’ option of MACS 2.0 and merged close by peaks to identify broad peaks. […] Finally, in order to annotate broad-source domains, Applicants utilized RSEG (Song and Smith, 2011) using the following flags: ‘-b 25000’, ‘-i 20’, ‘-mode 2’.
Applicants also analyzed the RAD21 and SMC1 signal at all ChIP-Seq peaks called in our data from untreated cells using MACS 2.0. […]

[1] = average at ChIP-Seq peaks called in untreated cells

With `O=C(O)Cc1c[nH]c2ccccc12` [auxin, indole-3-acetic acid] the “cohesin peaks (merged SMC1 and RAD21 ChIP-Seq calls) lost after auxin treatment” value (6 hours auxin) was 97%, the “reduction in binding strength of RAD21” value [1] was 81% and the “reduction in binding strength of SMC1” value [1] was 75%. The “RAD21 mean enrichment in treated cells” value (untreated 12.58) was 2.39 and the “SMC1 mean enrichment in treated cells” value (untreated 16.23) was 4.00.

— patent US20200255828A1, “METHODS AND COMPOSITIONS FOR ALTERING FUNCTION AND STRUCTURE OF CHROMATIN LOOPS AND/OR DOMAINS” (THE BROAD INSTITUTE, INC., priority 2017, published 2020)
